Test results reported in patent US11390621B2, “Chiral indole compounds and their use” (ARIAGEN, INC., priority 2019, dated 2022).
Values joined by “and” are separate entries in the source; they are usually repeats but may differ in a detail not shown here. Identical values can stand only once.

Experiments:
[1] = CYP profiling: turnover in human liver microsomes, 30 min, no inhibitor; type: in vitro ADME; design: % Compound Metabolized at 30 min, No Inhibitor: concentration or dose not given beside the values; conditions: HLMs
Procedure: (§1) In order to investigate the contributions of CYP1A2 and CYP3A4 to the metabolism of the compounds of the present disclosure, human liver microsomes were incubated with the test compounds for 30 minutes in the presence of selective chemical inhibitors furafylline (1A2) and ketoconazole (3A4).

CYP1A2 = molecular target: T1, CYP1A2 (Homo sapiens, UniProt P05177); assay: CYP profiling: human liver microsomes with CYP1A2 inhibitor furafylline; type: in vitro ADME; design: % Compound Metabolized at 30 min, CYP1A2 Inhibitor: concentration or dose not given beside the values; conditions: HLMs; for % Inhibition Relative to Negative Control, 1A2: 30 min
T1 construct: from tissue; host or cells: human liver microsomes
T1 sequence (P05177 1-516): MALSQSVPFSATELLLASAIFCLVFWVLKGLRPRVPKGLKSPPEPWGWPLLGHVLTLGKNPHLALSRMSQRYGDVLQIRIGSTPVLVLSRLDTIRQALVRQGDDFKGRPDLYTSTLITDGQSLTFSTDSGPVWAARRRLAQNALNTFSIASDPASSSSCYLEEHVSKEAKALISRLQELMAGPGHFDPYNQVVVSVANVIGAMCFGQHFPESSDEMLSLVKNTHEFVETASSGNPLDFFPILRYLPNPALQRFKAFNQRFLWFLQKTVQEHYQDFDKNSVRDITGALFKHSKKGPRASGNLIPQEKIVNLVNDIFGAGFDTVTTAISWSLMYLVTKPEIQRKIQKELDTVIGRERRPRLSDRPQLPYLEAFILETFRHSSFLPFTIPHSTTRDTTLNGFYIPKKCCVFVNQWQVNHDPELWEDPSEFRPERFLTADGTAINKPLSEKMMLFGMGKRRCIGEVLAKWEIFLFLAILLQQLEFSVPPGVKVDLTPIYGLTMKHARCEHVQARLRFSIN
Procedure: as §1

AhR = molecular target: T2, AhR (Homo sapiens, UniProt P35869); assay: EROD assay (7-ethoxy-resorufin-O-deethylase; CYP1A1 activity) in human HepG2 cells; type: cell-based; conditions: for EC90: HepG2, human HepG2 cells
T2 construct: host or cells: human HepG2 cells
T2 sequence (P35869 11-848): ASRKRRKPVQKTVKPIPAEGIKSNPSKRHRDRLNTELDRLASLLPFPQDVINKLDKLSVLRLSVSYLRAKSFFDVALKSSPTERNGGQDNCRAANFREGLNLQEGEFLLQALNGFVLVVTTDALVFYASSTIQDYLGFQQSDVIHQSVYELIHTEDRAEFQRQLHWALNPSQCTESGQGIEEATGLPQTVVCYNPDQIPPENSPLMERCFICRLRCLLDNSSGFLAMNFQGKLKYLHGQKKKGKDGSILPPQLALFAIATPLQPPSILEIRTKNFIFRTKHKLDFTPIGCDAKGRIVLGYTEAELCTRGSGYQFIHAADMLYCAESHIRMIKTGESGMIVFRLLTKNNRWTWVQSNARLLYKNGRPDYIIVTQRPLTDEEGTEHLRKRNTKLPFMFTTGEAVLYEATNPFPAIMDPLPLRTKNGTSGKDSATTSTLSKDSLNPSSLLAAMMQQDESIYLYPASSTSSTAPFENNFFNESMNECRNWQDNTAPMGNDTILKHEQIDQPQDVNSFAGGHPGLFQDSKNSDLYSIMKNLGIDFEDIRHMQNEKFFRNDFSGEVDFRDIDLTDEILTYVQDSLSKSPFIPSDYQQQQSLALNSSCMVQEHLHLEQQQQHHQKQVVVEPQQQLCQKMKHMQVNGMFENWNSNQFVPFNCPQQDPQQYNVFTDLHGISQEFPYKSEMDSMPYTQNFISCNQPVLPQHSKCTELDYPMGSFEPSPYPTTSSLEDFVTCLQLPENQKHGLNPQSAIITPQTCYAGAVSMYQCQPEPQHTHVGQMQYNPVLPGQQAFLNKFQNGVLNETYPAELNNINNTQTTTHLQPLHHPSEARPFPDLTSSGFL
Procedure: CYP1A1 induction is under the control of the AhR signaling pathway. This Example describes an in vitro assay (7-ethoxy-resorufin-O-deethylase (EROD) assay) that evaluated the AhR modulating activities of the indole compounds described herein. In this assay, the indole compounds were incubated with human HepG2 cells or mouse Hepa1-6 cells. The activity of CYP1A1 in the cells was measured by the conversion of substrate 7-ethoxyresorufin, with the readout being a fluorescence signal associated with the conversion product. The EC50 values of the indole compounds as well as the maximum luminescence induced by them in the assay were determined.
Human HepG2 cells were obtained from Sigma Aldrich (Catalog 85011430-1VL).
Human HepG2 cells were grown to 60-80% confluency in tissue culture flasks, lifted with non-enzymatic cell dissociation solution (cell stripper), seeded in a 384-well plate at 5,000 cells per well, treated with the test compounds, and incubated for 20 hours overnight at 37° C. The treatment medium was removed and a solution of substrate 7-ethoxyresorufin (ETX) was added to initiate the reaction. The plate was incubated at 37° C. for 30 minutes. The reaction was subsequently terminated by adding tempered methanol. Fluorescent emission was measured at 590 nm with excitation at 530 nm in a FLEXSTATION III instrument (Molecular Devices).

Structure (SMILES)	% Compound Metabolized at 30 min, No Inhibitor [1]	% Compound Metabolized at 30 min, CYP1A2 Inhibitor (CYP1A2)	% Inhibition Relative to Negative Control, 1A2 (CYP1A2)	EC90 (AhR; Plate 2) [nM]	EC50 (AhR; human HepG2 cells, Plate 2) [nM]	EC90 (AhR; Plate 1) [nM]	EC50 (AhR; human HepG2 cells, Plate 1) [nM]	metabolic turnover (in words) [1]	fold more potent than ARI-164 by EC50 (AhR; human HepG2 cells) [×]	fold more potent than ARI-164 by EC90 (AhR; human HepG2 cells) [×]	fold more potent than ARI-187 by EC50 (AhR; human HepG2 cells)	fold more potent than ARI-187 by EC90 (AhR; human HepG2 cells)	fold more potent than ARI-219 by EC50 (AhR; human HepG2 cells) [×]	fold more potent than ARI-219 by EC90 (AhR; human HepG2 cells) [×]
CCC(=O)c1csc(C(=O)c2c[nH]c3cc(F)ccc23)n1 [ARI-143, 1-(2-(6-fluoro-1H-indole-3-carbonyl)thiazol-4-yl)propan-1-one]	69% and 91%	32% and 17%	54% and 81%	347	95.2	–	–	–	–	–	–	–	–	–
CC[C@H](O)c1csc(C(=O)c2c[nH]c3cc(F)ccc23)n1 [ARI-164, (S)-(6-Fluoro-1H-indol-3-yl)(4-(1-hydroxypropyl)thiazol-2-yl)methanone]	37%	4%	89%	138	104	134	104	–	–	–	–	–	–	–
CC[C@H](N)c1csc(C(=O)c2c[nH]c3cc(F)ccc23)n1 [ARI-186, (S)-(4-(1-aminopropyl)thiazol-2-yl)(6-fluoro-1H-indol-3-yl)methanone]	13%	10%	23%	–	–	7.4	5.8	very low turnover	17.8	18.0	9.5 × and 9.6 ×	20.5 × and 20.6 ×	–	–
CC[C@@H](N)c1csc(C(=O)c2c[nH]c3cc(F)ccc23)n1 [ARI-187, (R)-(4-(1-aminopropyl)thiazol-2-yl)(6-fluoro-1H-indol-3-yl)methanone]	4%	7%	None	–	–	152	55.6	–	–	–	–	–	–	–
O=C(c1nc([C@@H](O)C(F)(F)F)cs1)c1c[nH]c2cc(F)ccc12 [ARI-211]	50%	67%	None	–	–	183	35.9	–	–	–	–	–	–	–
O=C(c1nc([C@H](O)C(F)(F)F)cs1)c1c[nH]c2cc(F)ccc12 [ARI-212]	43%	51%	None	–	–	150	21.9	–	–	–	–	–	–	–
CC[C@H](N)c1csc(C(=O)c2c[nH]c3ccc(F)cc23)n1 [ARI-218]	16%	17%	None	7.9	6.3	–	–	–	–	–	–	–	19.7	53
CC[C@@H](N)c1csc(C(=O)c2c[nH]c3ccc(F)cc23)n1 [ARI-219]	13%	5%	62%	419	124	–	–	–	–	–	–	–	–	–
CC(C)(O)c1csc(C(=O)c2c[nH]c3cc(F)ccc23)n1 [ARI-220, (6-fluoro-1H-indol-3-yl)(4-(2-hydroxypropan-2-yl)thiazol-2-yl)methanone]	41%	0%	100%	476	372	–	–	–	–	–	–	–	–	–
O=C(c1nc(C2(O)CC2)cs1)c1c[nH]c2cc(F)ccc12 [ARI-221, (6-fluoro-1H-indol-3-yl)(4-(1-hydroxycyclopropyl)thiazol-2-yl)methanone]	95%	28%	71%	34.5	26.1	–	–	–	–	–	–	–	–	–
N[C@H](c1csc(C(=O)c2c[nH]c3cc(F)ccc23)n1)C(F)(F)F [ARI-223]	79%	12%	85%	103	22.6	–	–	high turnover	–	–	–	–	–	–
N[C@@H](c1csc(C(=O)c2c[nH]c3cc(F)ccc23)n1)C(F)(F)F [ARI-224]	9%	7%	22%	152	33.7	–	–	low turnover	3.1	0.90	–	–	–	–
NC1(c2csc(C(=O)c3c[nH]c4cc(F)ccc34)n2)CC1 [ARI-225, (4-(1-aminocyclopropyl)thiazol-2-yl)(6-fluoro-1H-indol-3-yl)methanone]	39%	10%	74%	109	46.8	–	–	high turnover	–	–	–	–	–	–
CC(C)(N)c1csc(C(=O)c2c[nH]c3cc(F)ccc23)n1 [ARI-226, (4-(2-aminopropan-2-yl)thiazol-2-yl)(6-fluoro-1H-indol-3-yl)methanone]	6%	16%	None	33	24.6	–	–	low turnover	4.2	4.2	–	–	–	–
N[C@H](c1csc(C(=O)c2c[nH]c3ccccc23)n1)C(F)(F)F [ARI-228]	89%	23%	74%	217	65.6	–	–	high turnover	–	–	–	–	–	–
N[C@@H](c1csc(C(=O)c2c[nH]c3ccccc23)n1)C(F)(F)F [ARI-229]	0%	0%	None	204	50.3	–	–	–	–	–	–	–	–	–
